Measurements taken from patent publication US20210246128A1, “BICYCLE TOPOISOMERASE I INHIBITING COMPOUNDS, PROCESS FOR PREPARATION AND USE THEREOF” (Council of Scientific & Industrial Research, priority 2018, published 2021).
≈ marks a conversion by molar mass, not a printed value.

What was measured:
[1] = target: T1, endogenous TopI from the whole cell extracts of human breast adenocarcinoma (MCF7) cell (Homo sapiens, UniProt P11387); experiment: Plasmid DNA relaxation assay with MCF7 cell lysates (ex vivo); format: biochemical; conditions: MCF7 cell lysates as source of TopI
T1 construct: TopI enzyme in the extract is conserved in its native structure among a plethora of other cellular proteins; endogenous in cells; host or cells: MCF7 whole cell extract
T1 sequence (P11387 1-765): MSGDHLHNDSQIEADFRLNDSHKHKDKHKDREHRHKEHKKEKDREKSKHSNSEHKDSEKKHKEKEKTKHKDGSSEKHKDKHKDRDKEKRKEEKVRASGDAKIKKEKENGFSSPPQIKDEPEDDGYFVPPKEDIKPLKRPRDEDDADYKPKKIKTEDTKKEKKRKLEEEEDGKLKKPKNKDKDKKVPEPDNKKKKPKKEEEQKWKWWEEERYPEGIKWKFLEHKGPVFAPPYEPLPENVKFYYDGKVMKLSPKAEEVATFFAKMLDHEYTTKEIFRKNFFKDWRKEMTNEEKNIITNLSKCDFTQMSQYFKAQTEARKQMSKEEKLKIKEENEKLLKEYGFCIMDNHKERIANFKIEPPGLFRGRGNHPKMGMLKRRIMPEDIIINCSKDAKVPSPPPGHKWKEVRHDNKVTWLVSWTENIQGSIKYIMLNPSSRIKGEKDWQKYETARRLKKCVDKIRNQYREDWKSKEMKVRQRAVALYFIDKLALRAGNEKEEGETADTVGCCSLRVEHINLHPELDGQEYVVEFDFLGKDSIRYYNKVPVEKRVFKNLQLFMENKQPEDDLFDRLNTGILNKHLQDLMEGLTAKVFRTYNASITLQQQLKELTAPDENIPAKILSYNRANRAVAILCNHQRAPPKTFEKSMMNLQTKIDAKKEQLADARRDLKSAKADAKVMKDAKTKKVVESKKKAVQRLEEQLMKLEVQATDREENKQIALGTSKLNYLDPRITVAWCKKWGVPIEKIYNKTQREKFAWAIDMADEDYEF
Description: (§1) Human ToPI Inhibition in Plasmid DNA Relaxation Assays with Recombinant TopI (In Vitro) or MCF7 Cell Lysates (Ex Vivo)
(§2) Relaxation of supercoiled pBSSK(^+) DNA with recombinant human TopI (HTopI) at a molar ratio of 3:1 at 37° C. for 30 minutes was performed
cellular extracts were utilized as a source of TopI (ex vivo) in plasmid DNA relaxation assays. TopI enzyme in the extract is conserved in its native structure among a plethora of other cellular proteins.

[2] = Solubility assay (pH 7.4 pION buffer, UV); format: physicochemical; conditions: pH 7.4 pION buffer, aqueous buffer, kinetic from dmso stock; pH 7.4 buffer, 18 hours incubation; read-out: Avg. Solubility (μg/mL) at pH 7.4
Procedure, shortened: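 Compound from 20 mM DMSO stock diluted to 200 μM in pH 7.4 pION buffer (<1.0% DMSO) and incubated 18 h sealed. Samples vacuum-filtered, filtrate mixed 1:1 with acetonitrile and UV absorbance read at 240 nm against an acetonitrile/buffer reference of the stock.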

[3] = target: T2, recombinant human TopI (HTopI) (Homo sapiens, UniProt P11387); experiment: Gel based plasmid DNA relaxation assay with recombinant TopI (in vitro); format: biochemical; conditions: recombinant human TopI, plasmid DNA relaxation
T2 sequence (P11387 1-765): T1 sequence (P11387 1-765)
Description: as §1, §2

Plasma stability assay = format: in vitro ADME; conditions: pH 7.4, 37° C., 1 μM

Nc1ccc(-c2ccc3ncc(-c4nnco4)c(NCCCn4ccnc4)c3c2)cn1 [Compound 24, N-(3-(1H-imidazol-1-yl)propyl)-6-(6-aminopyridin-3-yl)-3-(1,3,4-oxadiazol-2-yl)quinolin-4-amine]
IC50 [1]: 1830 nM | solubility at 18 h [2]: 27.2 µg/mL (≈ 66 µM) | IC50 [3]: 21 nM | Mean % remaining at 2 hrs in human Plasma (Plasma stability assay): 84.18%
